Data from patent US5968910A, “Compositions containing two or three inhibitors of different HIV reverse transcriptases” (priority 1994, dated 1999).
≈ marks a conversion by molar mass, not a printed value. Read-outs that look alike come from different tables or passages of the source.

Assays:
[1] = test system: HIV-1/V(0.1) 101-Ile + 141-Glu; assay: Sensitivity of mutant HIV-1 strain in CEM cell cultures; type: cell-based; settings: Human immunodeficiency virus 1, CCRF-CEM; Table 5; read-out: EC50
Outline: (§1)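 CEM cells at 250,000 cells/ml were infected with HIV-1 at 100 CCID50 per ml, then mixed with serial dilutions of test compound. After 4 days at 37° C., cultures were scored for syncytium formation.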

[2] = test system: HIV-1/TIBO R82150 (100-Ile); assay: as above; type: cell-based; settings: Human immunodeficiency virus 1, CCRF-CEM; CEM cells, Table 1; read-out: 50% Effective Concentration
Outline: as §1

[3] = test system: HIV-1/V(0.5) 103-Asn; assay: as above; type: cell-based; settings: Human immunodeficiency virus 1, CCRF-CEM; Table 5; read-out: EC50
Outline: as §1

[4] = test system: HIV-1/II(0.1) 100-Ile; assay: as above; type: cell-based; settings: Human immunodeficiency virus 1, CCRF-CEM; Table 5; read-out: EC50
Outline: as §1

[5] = test system: HIV-1/I(0.1) 103-Asn; assay: as above; type: cell-based; settings: Human immunodeficiency virus 1, CCRF-CEM; Table 5; read-out: EC50
Outline: as §1

[6] = test system: HIV-1/IV(0.1) 103-Thr; assay: as above; type: cell-based; settings: Human immunodeficiency virus 1, CCRF-CEM; Table 5; read-out: EC50
Outline: as §1

[7] = test system: HIV-1/III(0.1) 103-Asn; assay: as above; type: cell-based; settings: Human immunodeficiency virus 1, CCRF-CEM; Table 5; read-out: EC50
Outline: as §1

[8] = test system: HIV-1/TSAO-m^3 T (138-Lys); assay: as above; type: cell-based; settings: Human immunodeficiency virus 1, CCRF-CEM; CEM cells, Table 1; read-out: 50% Effective Concentration
Outline: as §1

[9] = test system: HIV-1/Pyr (181-Cys); assay: as above; type: cell-based; settings: Human immunodeficiency virus 1, CCRF-CEM; CEM cells, Table 1; read-out: 50% Effective Concentration
Outline: as §1

[10] = test system: HIV-1/Nev (106-Ala); assay: as above; type: cell-based; settings: Human immunodeficiency virus 1, CCRF-CEM; CEM cells, Table 1; read-out: 50% Effective Concentration
Outline: as §1

[11] = test system: HIV-1/TIBO R82913 (103-Asn); assay: as above; type: cell-based; settings: Human immunodeficiency virus 1, CCRF-CEM; CEM cells, Table 1; read-out: 50% Effective Concentration
Outline: as §1

[12] = test system: HIV-1(IIIB) (WT); assay: microbe, parasite or virus in culture; type: cell-based; settings: Human immunodeficiency virus 1, IIIB, CCRF-CEM
Outline: as §1

[13] = test system: HIV-1(IIIB); assay: Knock-out concentrations: breakthrough of HIV-1(IIIB)-induced cytopathicity in CEM cell cultures; type: cell-based; settings: for activity at 0.1 µg/mL / activity at 0.5 µg/mL / activity at 2.5 µg/mL: Human immunodeficiency virus 1, IIIB, CCRF-CEM, read-out: HIV-1-induced cytopathicity in cell culture; for activity at 0.1 µg/mL: 0.1 μg/ml; for activity at 0.5 µg/mL: 0.5 μg/ml; for activity at 2.5 µg/mL: 2.5 μg/ml
Outline: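 CEM cells in RPMI 1640 with 10% FBS infected with HIV-1(IIIB) at ~1000× CCID50, subcultured every 3–4 days into fresh uninfected cells with drug held constant for 10 subcultivations (35 days), then ≥5 drug-free passages. Breakthrough scored by syncytium formation. Combinations used the two lowest single-drug starting concentrations.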

[14] = target: HIV-1 RT (WT) (Human immunodeficiency virus type 1 group M subtype B, UniProt P03366); assay: biochemical
Outline: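 Inhibition read as reduced incorporation of [2,8-³H]dGTP (2.95 μM) into acid-precipitable product on a poly(C).oligo(dG) template/primer (0.1 mM). Recombinant RT, test compounds in 5-fold dilutions; 30 min, 37° C, pH 7.8 Tris buffer with 5 mM Mg2+, 150 mM KCl.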

[15] = 936 h, day 39 post infection, compound absent from day 35
[16] = 1008 h, day 42 post infection, compound absent from day 35
[17] = 1104 h, day 46 post infection, compound absent from day 35
[18] = 1176 h, day 49 post infection, compound absent from day 35
[19] = 1272 h, day 53 post infection, compound absent from day 35

Compound: Cc1occc1C(=S)Nc1ccc(Cl)c(C(=O)OC2CCCC2)c1 [Compound IV]
- EC50 [1]: 0.11 mg/L (≈ 0.302 µM)
- EC50 [2]: 0.17 mg/L (≈ 0.467 µM)
- EC50 [3]: 0.65 mg/L (≈ 1.79 µM)
- EC50 [4]: 0.4 mg/L (≈ 1.1 µM)
- EC50 [5]: 0.2 mg/L (≈ 0.55 µM)
- EC50 [6]: 0.53 mg/L (≈ 1.46 µM)
- EC50 [7]: 0.14 mg/L (≈ 0.385 µM)
- EC50 [8]: 0.035 mg/L (≈ 0.0962 µM)
- EC50 [9]: 0.045 mg/L (≈ 0.124 µM)
- EC50 [10]: 0.04 mg/L (≈ 0.11 µM)
- EC50 [11]: 0.7 mg/L (≈ 1.92 µM)
- EC50 ([12]; CEM cells, Table 1, read-out: 50% Effective Concentration): 0.005 mg/L (≈ 0.0137 µM)
- EC50 ([12]; HIV-1 (III8), Table 5, read-out: EC50): 0.005 mg/L (≈ 0.0137 µM)
- IC50 ([12]; range stated for Compounds I-V together, read-out: 50% inhibitory concentration, HIV-1(IIIB) replication in CEM cells): 0.004 to 0.05 mg/L (≈ 0.011 to 0.137 µM)
- prevention of virus breakthrough, fold more efficient than BHAP [13]: at least 5 fold
- prevention of virus breakthrough, fold more efficient than nevirapine [13]: ≥ 25 fold
- activity at 0.1 µg/mL ([13]; 96 h, day 4 post infection): 0%
- activity at 0.5 µg/mL ([13]; 96 h, day 4 post infection): 0%
- activity at 2.5 µg/mL ([13]; 96 h, day 4 post infection): 0%
- activity at 0.1 µg/mL ([13]; 192 h, day 8 post infection): 0%
- activity at 0.5 µg/mL ([13]; 192 h, day 8 post infection): 0%
- activity at 2.5 µg/mL ([13]; 192 h, day 8 post infection): 0%
- activity at 0.1 µg/mL ([13]; 264 h, day 11 post infection): 0%
- activity at 0.5 µg/mL ([13]; 264 h, day 11 post infection): 0%
- activity at 2.5 µg/mL ([13]; 264 h, day 11 post infection): 0%
- activity at 0.1 µg/mL ([13]; 336 h, day 14 post infection): 6.2%
- activity at 0.5 µg/mL ([13]; 336 h, day 14 post infection): 0%
- activity at 2.5 µg/mL ([13]; 336 h, day 14 post infection): 0%
- activity at 0.1 µg/mL ([13]; 408 h, day 17 post infection): 25%
- activity at 0.5 µg/mL ([13]; 408 h, day 17 post infection): 0%
- activity at 2.5 µg/mL ([13]; 408 h, day 17 post infection): 0%
- activity at 0.1 µg/mL ([13]; 504 h, day 21 post infection): 87.5%
- activity at 0.5 µg/mL ([13]; 504 h, day 21 post infection): 0%
- activity at 2.5 µg/mL ([13]; 504 h, day 21 post infection): 0%
- activity at 0.1 µg/mL ([13]; 600 h, day 25 post infection): 100%
- activity at 0.5 µg/mL ([13]; 600 h, day 25 post infection): 0%
- activity at 2.5 µg/mL ([13]; 600 h, day 25 post infection): 0%
- activity at 0.1 µg/mL ([13]; 672 h, day 28 post infection): 100%
- activity at 0.5 µg/mL ([13]; 672 h, day 28 post infection): 0%
- activity at 2.5 µg/mL ([13]; 672 h, day 28 post infection): 0%
- activity at 0.1 µg/mL ([13]; 768 h, day 32 post infection): 100%
- activity at 0.5 µg/mL ([13]; 768 h, day 32 post infection): 0%
- activity at 2.5 µg/mL ([13]; 768 h, day 32 post infection): 0%
- activity at 0.1 µg/mL ([13]; 840 h, day 35 post infection): 100%
- activity at 0.5 µg/mL ([13]; 840 h, day 35 post infection): 0%
- activity at 2.5 µg/mL ([13]; 840 h, day 35 post infection): 0%
- activity at 0.1 µg/mL [13, 15]: 100%
- activity at 0.5 µg/mL [13, 15]: 0%
- activity at 2.5 µg/mL [13, 15]: 0%
- activity at 0.1 µg/mL [13, 16]: 100%
- activity at 0.5 µg/mL [13, 16]: 0%
- activity at 2.5 µg/mL [13, 16]: 0%
- activity at 0.1 µg/mL [13, 17]: 100%
- activity at 0.5 µg/mL [13, 17]: 0%
- activity at 2.5 µg/mL [13, 17]: 0%
- activity at 0.1 µg/mL [13, 18]: 100%
- activity at 0.5 µg/mL [13, 18]: 0%
- activity at 2.5 µg/mL [13, 18]: 0%
- activity at 0.1 µg/mL [13, 19]: 100%
- activity at 0.5 µg/mL [13, 19]: 0%
- activity at 2.5 µg/mL [13, 19]: 0%
- concentration at which virus emerged (virus breakthrough) ([13]; tested at 0.1, 0.5 and 2.5 μg/ml, 35 days): 0.1 µg/mL
- IC50 ([14]; range stated for the compounds together, poly(C).oligo(dG), 2.95 μM [2,8-3H]dGTP, read-out: IC50 on recombinant HIV-1 RT): 0.0495 to 0.212 µM
- IC50 ([14]; substrate [2,8-3H]dGTP 2.95 μM, template poly(rC)oligo(dG), read-out: IC50, anti-HIV-1 RT (WT) activity (converted)): 0.0495 µM
